Test results as given in patent US8853233B2, “Broad-spectrum anti-cancer treatment based on iminocamptothecin derivatives” (Sigma-Tau Industrie Farmaceutiche Riunite S.p.A., priority 2007, dated 2014).

How the values were obtained:
Set-up in all cases: species or system nude athymic mice
[1] = tested on: A431 epidermoid skin ca. xenograft; test: In vivo antitumoral activity, A431 tumor xenograft; conditions: q4d × 4
Method: (§1) Exponentially growing tumor cells were injected s.c. into nude athymic mice. The number of tumor cells was previously chosen by a growth curve. […] Animals were housed under a light-dark cycle, keeping temperature and humidity constant. Parameters of the animal rooms were assessed as follows: 22±2° C. temperature, 55±10% relative humidity, about 15-20 filtered air changes/hour and 12 hour circadian cycle of artificial light (7 a.m., 7 p.m.). At request, the environmental conditions were monitored and the data are retained in Animal Housing Archives. Drinking water was supplied ad libitum. Each mouse was offered daily a complete pellet diet (GLP 4RF21, Mucedola) throughout the study. The analytical certificates of animal food and water are retained at Sigma-Tau premises. All animals were weighed before starting the experiment and were subdivided into the different dosage groups. Each cage was identified by a paper tag indicating: cage number, group, date of tumor injection, starting date of treatment, name of the test item, dose and route of administration, date of sacrifice.
(§2) Tumor growth was followed by biweekly measurements of tumor diameters with a Vernier caliper. Tumor volume (TV, mm^3) was calculated as: [length (mm)×width (mm)^2]/2, where the width and the length are the shortest and the longest diameters of each tumor, respectively.
(§3) LTS (long term survivors) were considered mice without tumor 90 days upon the tumor injection.

[2] = tested on: A253 epidermoid submaxillary salivary gland carcinoma xenograft; test: In vivo antitumoral activity, A253 tumor xenograft; conditions: q4d × 4
Method: as §1, §2
LTS (long term survivors) were considered mice without tumor 90 days upon the tumor injection. […]

[3] = tested on: KB squamous oral head and neck carcinoma xenograft; test: In vivo antitumoral activity, KB tumor xenograft; conditions: q4d × 4
Method: as §1, §2, §3

[4] = tested on: HT1376 bladder ca. xenograft; test: In vivo antitumoral activity, HT1376 tumor xenograft; conditions: q4d × 4
Method: as §1, §2, §3

[5] = tested on: 501Mel melanoma xenograft; test: In vivo antitumoral activity, 501Mel tumor xenograft; conditions: 501Mel xenograft, q4d × 4
Method: as §1, §2, §3

[6] = tested on: MESO mesothelioma xenograft; test: In vivo antitumoral activity, MESO tumor xenograft; conditions: q4d × 4
Method: as §1, §2, §3

[7] = tested on: FaDu squamous pharynx carcinoma xenograft; test: In vivo antitumoral activity, FaDu tumor xenograft
Method: as §1, §2, §3

[8] = tested on: MiaPaCa2 pancreas ca. xenograft; test: In vivo antitumoral activity, MiaPaCa2 tumor xenograft; conditions: q4d × 4
Method: as §1, §2, §3

SMILES: CC[C@@]1(O)C(=O)OCc2c1cc1n(c2=O)Cc2c-1nc1ccccc1c2/C=N\OCCN [ST1968, 7-(2-amino)ethoxyiminomethylcamptothecin]
- CR (complete response) ([1]; 30 mg/kg i.v.): 12/12
- LCK (log10 cell kill) ([1]; 30 mg/kg i.v.): >>7.7
- LTS (long term survivors) ([1]; 30 mg/kg i.v.): 12/12
- TVI % (tumor volume inhibition) ([1]; 30 mg/kg i.v.): 100%
- CR (complete response) ([2]; 15 mg/kg i.v.): 0/8
- LCK (log10 cell kill) ([2]; 15 mg/kg i.v.): 0.6
- LTS (long term survivors) ([2]; 15 mg/kg i.v.): 0/8
- TVI % (tumor volume inhibition) ([2]; 15 mg/kg i.v.): 84%
- CR (complete response) ([2]; 30 mg/kg i.v.): 0/8
- LCK (log10 cell kill) ([2]; 30 mg/kg i.v.): 1.2
- LTS (long term survivors) ([2]; 30 mg/kg i.v.): 1/8
- TVI % (tumor volume inhibition) ([2]; 30 mg/kg i.v.): 90%
- CR (complete response) ([2]; 35 mg/kg i.v.): 0/7
- LCK (log10 cell kill) ([2]; 35 mg/kg i.v.): 1.5
- LTS (long term survivors) ([2]; 35 mg/kg i.v.): 2/7
- TVI % (tumor volume inhibition) ([2]; 35 mg/kg i.v.): 96%
- CR (complete response) ([3]; 17.5 mg/kg i.v.): 4/8
- LCK (log10 cell kill) ([3]; 17.5 mg/kg i.v.): 3.79
- LTS (long term survivors) ([3]; 17.5 mg/kg i.v.): 4/8
- TVI % (tumor volume inhibition) ([3]; 17.5 mg/kg i.v.): 99%
- CR (complete response) ([3]; 35 mg/kg i.v.): 7/7
- LCK (log10 cell kill) ([3]; 35 mg/kg i.v.): >>4.0
- LTS (long term survivors) ([3]; 35 mg/kg i.v.): 7/7
- TVI % (tumor volume inhibition) ([3]; 35 mg/kg i.v.): 100%
- CR (complete response) ([4]; 30 mg/kg i.v.): 1/12
- LCK (log10 cell kill) ([4]; 30 mg/kg i.v.): 0.5
- LTS (long term survivors) ([4]; 30 mg/kg i.v.): 0/12
- TVI % (tumor volume inhibition) ([4]; 30 mg/kg i.v.): 77%
- CR (complete response) ([5]; 20 mg/kg i.v.): 0/6
- LCK (log10 cell kill) ([5]; 20 mg/kg i.v.): 1.0
- LTS (long term survivors) ([5]; 20 mg/kg i.v.): 0/6
- TVI % (tumor volume inhibition) ([5]; 20 mg/kg i.v.): 65%
- CR (complete response) ([5]; 30 mg/kg i.v.): 0/10
- LCK (log10 cell kill) ([5]; 30 mg/kg i.v.): 1.4
- LTS (long term survivors) ([5]; 30 mg/kg i.v.): 0/10
- TVI % (tumor volume inhibition) ([5]; 30 mg/kg i.v.): 68%
- CR (complete response) ([6]; 30 mg/kg i.v.): 2/12
- LCK (log10 cell kill) ([6]; 30 mg/kg i.v.): 1.4
- LTS (long term survivors) ([6]; 30 mg/kg i.v.): 0/12
- TVI % (tumor volume inhibition) ([6]; 30 mg/kg i.v.): 92%
- CR (complete response) ([7]; 15 mg/kg i.v., q4d × 4): 8/8
- LCK (log10 cell kill) ([7]; 15 mg/kg i.v., q4d × 4): >>3.9
- LTS (long term survivors) ([7]; 15 mg/kg i.v., q4d × 4): 8/8
- TVI % (tumor volume inhibition) ([7]; 15 mg/kg i.v., q4d × 4): 100%
- CR (complete response) ([7]; 30 mg/kg i.v., q4d × 4): 8/8
- LCK (log10 cell kill) ([7]; 30 mg/kg i.v., q4d × 4): >>3.9
- LTS (long term survivors) ([7]; 30 mg/kg i.v., q4d × 4): 8/8
- TVI % (tumor volume inhibition) ([7]; 30 mg/kg i.v., q4d × 4): 100%
- CR (complete response) ([7]; 35 mg/kg i.v., q4d × 4): 7/7
- LCK (log10 cell kill) ([7]; 35 mg/kg i.v., q4d × 4): >>3.9
- LTS (long term survivors) ([7]; 35 mg/kg i.v., q4d × 4): 7/7
- TVI % (tumor volume inhibition) ([7]; 35 mg/kg i.v., q4d × 4): 100%
- CR (complete response) ([8]; 17.5 mg/kg i.v.): 0/7
- LCK (log10 cell kill) ([8]; 17.5 mg/kg i.v.): 1.23
- LTS (long term survivors) ([8]; 17.5 mg/kg i.v.): 0/7
- TVI % (tumor volume inhibition) ([8]; 17.5 mg/kg i.v.): 75%
- CR (complete response) ([8]; 30 mg/kg i.v.): 0/8
- LCK (log10 cell kill) ([8]; 30 mg/kg i.v.): 1.67
- LTS (long term survivors) ([8]; 30 mg/kg i.v.): 0/8
- TVI % (tumor volume inhibition) ([8]; 30 mg/kg i.v.): 89%

SMILES: N.N.[Cl][Pt][Cl] [cisplatin]
- CR (complete response) ([7]; 4.7 mg/kg i.v., q7d × 3): 1/8
- LCK (log10 cell kill) ([7]; 4.7 mg/kg i.v., q7d × 3): 1.6
- LTS (long term survivors) ([7]; 4.7 mg/kg i.v., q7d × 3): 0/8
- TVI % (tumor volume inhibition) ([7]; 4.7 mg/kg i.v., q7d × 3): 93%
- CR (complete response) ([7]; 7 mg/kg i.v., q7d × 3): 1/8
- LCK (log10 cell kill) ([7]; 7 mg/kg i.v., q7d × 3): 3.9
- LTS (long term survivors) ([7]; 7 mg/kg i.v., q7d × 3): 3/8
- TVI % (tumor volume inhibition) ([7]; 7 mg/kg i.v., q7d × 3): 99%

SMILES: CCc1c2c(nc3ccc(OC(=O)N4CCC(N5CCCCC5)CC4)cc13)-c1cc3c(c(=O)n1C2)COC(=O)[C@]3(O)CC [irinotecan, reference compound]
- CR (complete response) ([1]; 50 mg/kg i.v.): 12/12
- LCK (log10 cell kill) ([1]; 50 mg/kg i.v.): 6.8
- LTS (long term survivors) ([1]; 50 mg/kg i.v.): 9/12
- CR (complete response) ([2]; 30 mg/kg i.v.): 0/8
- LCK (log10 cell kill) ([2]; 30 mg/kg i.v.): 0.1
- LTS (long term survivors) ([2]; 30 mg/kg i.v.): 0/8
- CR (complete response) ([2]; 60 mg/kg i.v.): 0/8
- LCK (log10 cell kill) ([2]; 60 mg/kg i.v.): 0.5
- LTS (long term survivors) ([2]; 60 mg/kg i.v.): 0/8
- CR (complete response) ([3]; 30 mg/kg i.v.): 0/7
- LCK (log10 cell kill) ([3]; 30 mg/kg i.v.): 1.26
- LTS (long term survivors) ([3]; 30 mg/kg i.v.): 0/7
- CR (complete response) ([3]; 60 mg/kg i.v.): 0/8
- LCK (log10 cell kill) ([3]; 60 mg/kg i.v.): 1.63
- LTS (long term survivors) ([3]; 60 mg/kg i.v.): 0/8
- CR (complete response) ([4]; 50 mg/kg i.v.): 0/10
- LCK (log10 cell kill) ([4]; 50 mg/kg i.v.): 0.2
- LTS (long term survivors) ([4]; 50 mg/kg i.v.): 0/10
- CR (complete response) ([5]; 50 mg/kg i.v.): 0/10
- LCK (log10 cell kill) ([5]; 50 mg/kg i.v.): 1.3
- LTS (long term survivors) ([5]; 50 mg/kg i.v.): 0/10
- CR (complete response) ([6]; 50 mg/kg i.v.): 0/12
- LCK (log10 cell kill) ([6]; 50 mg/kg i.v.): 0.8
- LTS (long term survivors) ([6]; 50 mg/kg i.v.): 0/12
- CR (complete response) ([7]; 30 mg/kg i.v., q4d × 4): 8/8
- LCK (log10 cell kill) ([7]; 30 mg/kg i.v., q4d × 4): >>3.9
- LTS (long term survivors) ([7]; 30 mg/kg i.v., q4d × 4): 8/8
- CR (complete response) ([7]; 60 mg/kg i.v., q4d × 4): 8/8
- LCK (log10 cell kill) ([7]; 60 mg/kg i.v., q4d × 4): >>3.9
- LTS (long term survivors) ([7]; 60 mg/kg i.v., q4d × 4): 8/8
- CR (complete response) ([8]; 60 mg/kg i.v.): 0/7
- LCK (log10 cell kill) ([8]; 60 mg/kg i.v.): 1.23
- LTS (long term survivors) ([8]; 60 mg/kg i.v.): 0/7
